Molecular target: Steroid 5-alpha-reductase (Rattus norvegicus) (UniProt P24008+P31214)
Test: Inhibition of rat Steroid 5-alpha-reductase was determined at 10e-8 M concentration
Assay type: protein assay

Sequence of Steroid 5-alpha-reductase (Rattus norvegicus) (P24008 whole entry, looked up): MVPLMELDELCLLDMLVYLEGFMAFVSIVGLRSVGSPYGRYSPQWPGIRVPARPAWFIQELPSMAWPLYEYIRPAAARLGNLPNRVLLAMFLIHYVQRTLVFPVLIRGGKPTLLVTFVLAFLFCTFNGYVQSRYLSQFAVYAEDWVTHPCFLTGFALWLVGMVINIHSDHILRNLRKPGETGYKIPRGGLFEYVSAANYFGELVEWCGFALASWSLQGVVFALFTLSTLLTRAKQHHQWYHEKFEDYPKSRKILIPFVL
Sequence of Steroid 5-alpha-reductase (Rattus norvegicus) (P31214 whole entry, looked up): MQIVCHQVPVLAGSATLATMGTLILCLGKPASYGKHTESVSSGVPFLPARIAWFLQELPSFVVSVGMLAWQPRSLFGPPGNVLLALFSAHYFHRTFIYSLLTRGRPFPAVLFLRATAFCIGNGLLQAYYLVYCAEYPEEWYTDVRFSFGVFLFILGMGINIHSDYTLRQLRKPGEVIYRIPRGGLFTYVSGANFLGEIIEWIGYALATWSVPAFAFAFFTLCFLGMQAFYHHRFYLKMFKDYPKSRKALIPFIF

- inhibition: 63%
SMILES: CC12CCC3C(C[C@H]4NC(=O)CCC34C)C1CCC2C(=O)NC(c1ccccc1)c1ccccc1 (stereo partly specified)

Source: ChEMBL document CHEMBL1127263, “Synthesis of B-NOR-4-AZA-5-androstane compound as 5-reductase inhibitor” (Bioorg Med Chem Lett, 1994)
